# Experimental data taken from patent publication US10633386B2, “BET protein degraders” (THE REGENTS OF THE UNIVERSITY OF MICHIGAN, priority 2016, dated 2020).
# Read-outs that look alike come from different tables or passages of the source.
# Legend:
# CALU-1 = assay: Cell growth inhibition (CellTiter-Glo), NSCLC line CALU-1; type: cell-based; conditions: CALU-1 non-small cell lung cancer cell line, 4 days
# Experimental: (§1) Cell growth inhibitory activity of representative BET bromodomain degraders in representative non-small cell lung cancer cell lines was determined using the CellTiter-Glo® Luminescent Cell Viability Assay. Cells were seeded in 384-well white opaque cell culture plates at a density of 2,000 cells/well with serially diluted compounds and incubated at 37° C. in an atmosphere of 95% air and 5% CO2 for 4 days. Cell viability was determined using the CellTiter-Glo® Luminescent Cell Viability Assay Kit (Promega, Madison, Wis.) according to the manufacture's instruction. Briefly, a volume of CellTiter-Glo® Reagent equal to the volume of cell culture medium was added to each well, and then the plates were incubated at room temperature for 10-20 minutes. The luminescent signal was measured using a Tecan Infinite M1000 multimode microplate reader (Tecan, Morrisville, N.C.). The half maximal inhibitory concentration (IC50) was calculated using the GraphPad Prism 5 software (GraphPad Software, La Jolla, Calif.). Cpd. A is a BET bromodomain inhibitor, see U.S. Appl.
# H1975 = assay: Cell growth inhibition (CellTiter-Glo), NSCLC line H1975; type: cell-based; conditions: H1975 non-small cell lung cancer cell line, 4 days
# Experimental: as §1
# H1650 = assay: Cell growth inhibition (CellTiter-Glo), NSCLC line H1650; type: cell-based; conditions: H1650 non-small cell lung cancer cell line, 4 days
# Experimental: as §1
# CALU6 = assay: Cell growth inhibition (CellTiter-Glo), NSCLC line CALU6; type: cell-based; conditions: CALU6 non-small cell lung cancer cell line, 4 days
# Experimental: as §1
# H322 = assay: Cell growth inhibition (CellTiter-Glo), NSCLC line H322; type: cell-based; conditions: H322 non-small cell lung cancer cell line, 4 days
# Experimental: as §1
# H1792 = assay: Cell growth inhibition (CellTiter-Glo), NSCLC line H1792; type: cell-based; conditions: H1792 non-small cell lung cancer cell line, 4 days
# Experimental: as §1
# H1299 = assay: Cell growth inhibition (CellTiter-Glo), NSCLC line H1299; type: cell-based; conditions: H1299 non-small cell lung cancer cell line, 4 days
# Experimental: as §1
# H2228 = assay: Cell growth inhibition (CellTiter-Glo), NSCLC line H2228; type: cell-based; conditions: H2228 non-small cell lung cancer cell line, 4 days
# Experimental: as §1
# H23 = assay: Cell growth inhibition (CellTiter-Glo), NSCLC line H23; type: cell-based; conditions: H23 non-small cell lung cancer cell line, 4 days
# Experimental: as §1
# MDA-MB-453 = assay: Cell growth inhibition (CellTiter-Glo), breast cancer line MDA-MB-453; type: cell-based; conditions: MDA-MB-453 breast cancer cell line, 4 days
# Experimental: (§2) Cell growth inhibitory activity of representative BET bromodomain degraders in representative breast cancer cell lines was determined using the CellTiter-Glo® Luminescent Cell Viability Assay. SUM-52 and SUM-159 cell lines were established at the University of Michigan Comprehensive Cancer Center. All the other breast cancer cell lines were obtained from the ATCC (Manassas, Va.). Cells were seeded in 384-well cell culture plates at a density of 1,000-2,500 cells/well with serially diluted compounds and incubated at 37° C. in an atmosphere of 95% air and 5% CO2 for 4 days. Cell viability was determined using the CellTiter-Glo® Luminescent Cell Viability Assay Kit (Promega, Madison, Wis.) according to the manufacture's instruction. Briefly, a volume of CellTiter-Glo® Reagent equal to the volume of cell culture medium was added to each well, and then the plates were incubated at room temperature for 20-60 minutes. The luminescent signal was measured using a Tecan Infinite M1000 multimode microplate reader (Tecan, Morrisville, N.C.). The half maximal inhibitory concentration (IC50) was calculated using the GraphPad Prism 5 software (GraphPad Software, La Jolla, Calif.). “Thd” is thalidomide.
# HCC1954 = assay: Cell growth inhibition (CellTiter-Glo), breast cancer line HCC1954; type: cell-based; conditions: 4 days
# Experimental: as §2
# MDA-MB-231 = assay: Cell growth inhibition (CellTiter-Glo), breast cancer line MDA-MB-231; type: cell-based, human; conditions: MDA-MB-231 breast cancer cell line, 4 days
# Experimental: as §2
# SUM-52 = assay: Cell growth inhibition (CellTiter-Glo), breast cancer line SUM-52; type: cell-based; conditions: SUM-52 breast cancer cell line, 4 days
# Experimental: as §2
# HCC70 = assay: Cell growth inhibition (CellTiter-Glo), breast cancer line HCC70; type: cell-based; conditions: 4 days
# Experimental: as §2
# SUM-159 = assay: Cell growth inhibition (CellTiter-Glo), breast cancer line SUM-159; type: cell-based; conditions: SUM-159 breast cancer cell line, 4 days
# Experimental: as §2
# SKCO-1 = assay: Cell growth inhibition (CellTiter-Glo), colon cancer line SKCO-1; type: cell-based; conditions: SKCO-1 colon cancer cell line
# Experimental: as §1, with “Appl. No. 62/121,637, having the following structure:” for “Appl.”
# (§3) Cell growth inhibitory activity of representative BET bromodomain degraders in representative colon cancer cell lines, see Table 7, was determined as described in Example 17.
# RKO = assay: Cell growth inhibition (CellTiter-Glo), colon cancer line RKO; type: cell-based
# Experimental: as §1, with “Appl. No. 62/121,637, having the following structure:” for “Appl.”
# as §3
# HCT116 = assay: Cell growth inhibition (CellTiter-Glo), colon cancer line HCT116; type: cell-based
# Experimental: as §1, with “Appl. No. 62/121,637, having the following structure:” for “Appl.”
# as §3
# SW837 = assay: Cell growth inhibition (CellTiter-Glo), colon cancer line SW837; type: cell-based
# Experimental: as §1, with “Appl. No. 62/121,637, having the following structure:” for “Appl.”
# as §3
# H508 = assay: Cell growth inhibition (CellTiter-Glo), colon cancer line H508; type: cell-based
# Experimental: as §1, with “Appl. No. 62/121,637, having the following structure:” for “Appl.”
# as §3
# SW1463 = assay: Cell growth inhibition (CellTiter-Glo), colon cancer line SW1463; type: cell-based
# Experimental: as §1, with “Appl. No. 62/121,637, having the following structure:” for “Appl.”
# as §3
# LS513 = assay: Cell growth inhibition (CellTiter-Glo), colon cancer line LS513; type: cell-based
# Experimental: as §1, with “Appl. No. 62/121,637, having the following structure:” for “Appl.”
# as §3
smiles,measurement,setting,value
"Cc1sc2c(c1C)C(c1ccc(Cl)cc1)=N[C@@H](CC(=O)NCCCCNC(=O)COc1cccc3c1C(=O)N(C1CCC(=O)NC1=O)C3=O)c1nnc(C)n1-2 (stereo partly shown) [dBET1, reference compound]",IC50,CALU-1,3100 nM
same,IC50,H1975,> 5000 nM
same,IC50,H1650,2300 nM
same,IC50,CALU6,> 5000 nM
same,IC50,H322,> 5000 nM
same,IC50,H1792,> 5000 nM
same,IC50,H1299,> 5000 nM
same,IC50,H2228,> 5000 nM
same,IC50,H23,> 5000 nM
same,IC50,MDA-MB-453,> 5000 nM
same,IC50,HCC1954,3760 nM
same,IC50,MDA-MB-231,1830 nM
same,IC50,SUM-52,> 5000 nM
same,IC50,HCC70,> 5000 nM
same,IC50,SUM-159,> 5000 nM
same,IC50,SKCO-1,> 5000 nM
same,IC50,RKO,> 5000 nM
same,IC50,HCT116,> 5000 nM
same,IC50,SW837,> 5000 nM
same,IC50,H508,> 5000 nM
same,IC50,SW1463,2730 ± 300 nM
same,IC50,LS513,> 5000 nM
CCn1nc(C2CC2)cc1Nc1nc(C(=O)NCCCCNc2cccc3c2C(=O)N(C2CCC(=O)NC2=O)C3=O)nc2[nH]c3cc(-c4c(C)noc4C)c(OC)cc3c12 (stereo not shown) [Cpd. No. 9],IC50,"CALU-1; Homo sapiens, 96 h",9 nM
same,IC50,"H1975; Homo sapiens, NCI-H1975, 96 h",16 nM
same,IC50,"H1650; Homo sapiens, NCI-H1650, 96 h",8 nM
same,IC50,"CALU6; Homo sapiens, Calu-6, 96 h",33 nM
same,IC50,"H322; NCI-H322, 96 h",93 nM
same,IC50,"H1792; Homo sapiens, NCI-H1792, 96 h",151 nM
same,IC50,"H1299; Homo sapiens, NCI-H1299, 96 h",228 nM
same,IC50,"H2228; Homo sapiens, NCI-H2228, 96 h",610 nM
same,IC50,"H23; Homo sapiens, NCI-H23, 96 h",3070 nM
same,IC50,"SKCO-1; Homo sapiens, SK-CO-1",23 ± 10 nM
same,IC50,RKO; Homo sapiens,241 ± 27 nM
same,IC50,"HCT116; Homo sapiens, HCT-116",585 ± 70 nM
same,IC50,SW837; Homo sapiens,230 ± 67 nM
same,IC50,"H508; Homo sapiens, NCI-H508",410 ± 150 nM
same,IC50,SW1463; Homo sapiens,191 ± 30 nM
same,IC50,"LS513; Homo sapiens, LS-513",185 ± 60 nM
"CCn1nc(C2CC2)cc1Nc1nc(COC)nc2[nH]c3cc(-c4c(C)noc4C)c(OC)cc3c12 [Cpd. A, reference compound]",IC50,"CALU-1; Homo sapiens, 96 h",2520 nM
same,IC50,"H1975; Homo sapiens, NCI-H1975, 96 h",40 nM
same,IC50,"H1650; Homo sapiens, NCI-H1650, 96 h",430 nM
same,IC50,"CALU6; Homo sapiens, Calu-6, 96 h",630 nM
same,IC50,"H322; NCI-H322, 96 h",340 nM
same,IC50,"H1792; Homo sapiens, NCI-H1792, 96 h",130 nM
same,IC50,"H1299; Homo sapiens, NCI-H1299, 96 h",60 nM
same,IC50,"H2228; Homo sapiens, NCI-H2228, 96 h",2400 nM
same,IC50,"H23; Homo sapiens, NCI-H23, 96 h",130 nM
same,IC50,"MDA-MB-453; Homo sapiens, 96 h",40 nM
same,IC50,"HCC1954; Homo sapiens, 96 h",1620 nM
same,IC50,"MDA-MB-231; Homo sapiens, 96 h",220 nM
same,IC50,"SUM-52; SUM52, 96 h",390 nM
same,IC50,"HCC70; Homo sapiens, 96 h",580 nM
same,IC50,"SUM-159; SUM159, 96 h",510 nM
same,IC50,"SKCO-1; Homo sapiens, SK-CO-1",1080 ± 240 nM
same,IC50,RKO; Homo sapiens,272 ± 235 nM
same,IC50,"HCT116; Homo sapiens, HCT-116",1160 ± 179 nM
same,IC50,SW837; Homo sapiens,84 ± 20 nM
same,IC50,"H508; Homo sapiens, NCI-H508",167 ± 90 nM
same,IC50,SW1463; Homo sapiens,> 2500 nM
same,IC50,"LS513; Homo sapiens, LS-513",915 ± 670 nM
CCn1nc(C2CC2)cc1Nc1nc(C(=O)NCCCOCCOCCOCCCNc2cccc3c2C(=O)N(C2CCC(=O)NC2=O)C3=O)nc2[nH]c3cc(-c4c(C)noc4C)c(OC)cc3c12 (stereo not shown) [Cpd. No. 4],IC50,"CALU-1; Homo sapiens, 96 h",2 nM
same,IC50,"H1975; Homo sapiens, NCI-H1975, 96 h",3 nM
same,IC50,"H1650; Homo sapiens, NCI-H1650, 96 h",4 nM
same,IC50,"CALU6; Homo sapiens, Calu-6, 96 h",9 nM
same,IC50,"H322; NCI-H322, 96 h",44 nM
same,IC50,"H1792; Homo sapiens, NCI-H1792, 96 h",48 nM
same,IC50,"H1299; Homo sapiens, NCI-H1299, 96 h",69 nM
same,IC50,"H2228; Homo sapiens, NCI-H2228, 96 h",174 nM
same,IC50,"H23; Homo sapiens, NCI-H23, 96 h",612 nM
same,IC50,"MDA-MB-453; Homo sapiens, 96 h",2 nM
same,IC50,"HCC1954; Homo sapiens, 96 h",4 nM
same,IC50,"MDA-MB-231; Homo sapiens, 96 h",4 nM
same,IC50,"SUM-52; SUM52, 96 h",8 nM
same,IC50,"HCC70; Homo sapiens, 96 h",35 nM
same,IC50,"SUM-159; SUM159, 96 h",166 nM
same,IC50,"SKCO-1; Homo sapiens, SK-CO-1",8 ± 4 nM
same,IC50,RKO; Homo sapiens,46 ± 1 nM
same,IC50,"HCT116; Homo sapiens, HCT-116",130 ± 30 nM
same,IC50,SW837; Homo sapiens,76 ± 30 nM
same,IC50,"H508; Homo sapiens, NCI-H508",54 ± 30 nM
same,IC50,SW1463; Homo sapiens,31 ± 10 nM
same,IC50,"LS513; Homo sapiens, LS-513",70 ± 20 nM
